In patent US8933232B2, “1,3,4-oxadiazole and 1,3,4-thiadiazole beta-lactamase inhibitors” (priority 2012, dated 2015):
Counter-ions that a name gives are not always drawn.

System: bacterial strains that express KPC β-lactamases
Assay: Synergy MIC / standard BLI potentiation MIC assay against strains expressing KPC β-lactamases
Format: cell-based
Details: in the presence of a β-lactam; comparator Avibactam
Summary of the method: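 Broth microdilution per modified CLSI M07-A9 in CAMHB, ~10^5 CFU/mL, 18-20 h at 37 °C with aeration; engineered E. coli carrying cloned β-lactamase plasmids kept in 25 μg/mL tetracycline. β-Lactam MIC read with BLI fixed at 4 μg/mL, or BLI serially diluted against fixed β-lactam; MIC = lowest concentration without visible turbidity.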

Compound | more active than Avibactam for at least one bacterial strain that expresses KPC β-lactamase and/or better spectrum of activity against KPC strains
O=C1N2C[C@@H](CC[C@H]2c2nnc([C@@H]3CCNC3)o2)N1OS(=O)(=O)O [Compound 759, (2S,5R)-7-oxo-2-(5-((R)-pyrrolidin-3-yl)-1,3,4-oxadiazol-2-yl)-1,6-diazabicyclo[3.2.1]octan-6-yl hydrogen sulfate] | more active than Avibactam
N=C(N)N1CC(Cc2nnc([C@@H]3CC[C@@H]4CN3C(=O)N4OS(=O)(=O)O)o2)C1 [Compound 741, (2S,5R)-2-(5-((1-carbamimidoylazetidin-3-yl)methyl)-1,3,4-oxadiazol-2-yl)-7-oxo-1,6-diazabicyclo[3.2.1]octan-6-yl hydrogen sulfate] | more active than Avibactam
NC1CCN(CCc2nnc([C@@H]3CC[C@@H]4CN3C(=O)N4OS(=O)(=O)O)o2)CC1 [Compound 775, (2S,5R)-2-(5-(2-(4-aminopiperidin-1-yl)ethyl)-1,3,4-oxadiazol-2-yl)-7-oxo-1,6-diazabicyclo[3.2.1]octan-6-yl hydrogen sulfate] | more active than Avibactam
N[C@H]1C[C@@H](NCc2nnc([C@@H]3CC[C@@H]4CN3C(=O)N4OS(=O)(=O)O)o2)C1 [Compound 756, (2S,5R)-2-(5-((((1s,3R)-3-aminocyclobutyl)amino)methyl)-1,3,4-oxadiazol-2-yl)-7-oxo-1,6-diazabicyclo[3.2.1]octan-6-yl hydrogen sulfate] | more active than Avibactam
N[C@H]1CN[C@@H](c2nnc([C@@H]3CC[C@@H]4CN3C(=O)N4OS(=O)(=O)O)o2)C1 [Compound 761, (2S,5R)-2-(5-((2R,4R)-4-aminopyrrolidin-2-yl)-1,3,4-oxadiazol-2-yl)-7-oxo-1,6-diazabicyclo[3.2.1]octan-6-yl hydrogen sulfate] | more active than Avibactam
O=C1N2C[C@@H](CC[C@H]2c2nnc([C@H]3CNCCN3)o2)N1OS(=O)(=O)O [Compound 779, (2S,5R)-7-oxo-2-(5-((R)-piperazin-2-yl)-1,3,4-oxadiazol-2-yl)-1,6-diazabicyclo[3.2.1]octan-6-yl hydrogen sulfate] | more active than Avibactam
NC1CCN(Cc2nnc([C@@H]3CC[C@@H]4CN3C(=O)N4OS(=O)(=O)O)o2)CC1 [Compound 774, (2S,5R)-2-(5-((4-aminopiperidin-1-yl)methyl)-1,3,4-oxadiazol-2-yl)-7-oxo-1,6-diazabicyclo[3.2.1]octan-6-yl hydrogen sulfate] | more active than Avibactam
N=C(N)N1CC(NCc2nnc([C@@H]3CC[C@@H]4CN3C(=O)N4OS(=O)(=O)O)o2)C1 [Compound 746, (2S,5R)-2-(5-(((1-carbamimidoylazetidin-3-yl)amino)methyl)-1,3,4-oxadiazol-2-yl)-7-oxo-1,6-diazabicyclo[3.2.1]octan-6-yl hydrogen sulfate] | more active than Avibactam
O=C1N2C[C@@H](CC[C@H]2c2nnc(CN3CCNCC3)o2)N1OS(=O)(=O)O [Compound 777, (2S,5R)-7-oxo-2-(5-(piperazin-1-ylmethyl)-1,3,4-oxadiazol-2-yl)-1,6-diazabicyclo[3.2.1]octan-6-yl hydrogen sulfate] | more active than Avibactam
O=C1N2C[C@@H](CC[C@H]2c2nnc([C@H]3CCNC3)o2)N1OS(=O)(=O)O [Compound 758, (2S,5R)-7-oxo-2-(5-((S)-pyrrolidin-3-yl)-1,3,4-oxadiazol-2-yl)-1,6-diazabicyclo[3.2.1]octan-6-yl hydrogen sulfate] | more active than Avibactam
CNCCc1nnc([C@@H]2CC[C@@H]3CN2C(=O)N3OS(=O)(=O)O)o1 [Compound 722, (2S,5R)-2-(5-(2-(methylamino)ethyl)-1,3,4-oxadiazol-2-yl)-7-oxo-1,6-diazabicyclo[3.2.1]octan-6-yl hydrogen sulfate] | more active than Avibactam
NC1(Cc2nnc([C@@H]3CC[C@@H]4CN3C(=O)N4OS(=O)(=O)O)o2)CC1 [Compound 724, (2S,5R)-2-(5-((1-aminocyclopropyl)methyl)-1,3,4-oxadiazol-2-yl)-7-oxo-1,6-diazabicyclo[3.2.1]octan-6-yl hydrogen sulfate] | more active than Avibactam
O=C1N2C[C@@H](CC[C@H]2c2nnc(CCC3CNC3)o2)N1OS(=O)(=O)O [Compound 742, (2S,5R)-2-(5-(2-(azetidin-3-yl)ethyl)-1,3,4-oxadiazol-2-yl)-7-oxo-1,6-diazabicyclo[3.2.1]octan-6-yl hydrogen sulfate] | more active than Avibactam
O=C1N2C[C@@H](CC[C@H]2c2nnco2)N1OS(=O)(=O)O [Compound 701, (2S,5R)-2-(1,3,4-oxadiazol-2-yl)-7-oxo-1,6-diazabicyclo[3.2.1]octan-6-yl hydrogen sulfate] | more active than Avibactam
N[C@H]1C[C@H](c2nnc([C@@H]3CC[C@@H]4CN3C(=O)N4OS(=O)(=O)O)o2)C1 [Compound 727, (2S,5R)-2-(5-((1r,3S)-3-aminocyclobutyl)-1,3,4-oxadiazol-2-yl)-7-oxo-1,6-diazabicyclo[3.2.1]octan-6-yl hydrogen sulfate] | more active than Avibactam
O=C1N2C[C@@H](CC[C@H]2c2nnc(C3CNC3)o2)N1OS(=O)(=O)O [Compound 708, (2S,5R)-2-(5-(azetidin-3-yl)-1,3,4-oxadiazol-2-yl)-7-oxo-1,6-diazabicyclo[3.2.1]octan-6-yl hydrogen sulfate] | more active than Avibactam
O=C1N2C[C@@H](CC[C@H]2c2nnc(CC3CCNC3)o2)N1OS(=O)(=O)O (stereo partly drawn) [Compound 764, (2S,5R)-7-oxo-2-(5-(pyrrolidin-3-ylmethyl)-1,3,4-oxadiazol-2-yl)-1,6-diazabicyclo[3.2.1]octan-6-yl hydrogen sulfate] | more active than Avibactam
N[C@H]1C[C@H](CCc2nnc([C@@H]3CC[C@@H]4CN3C(=O)N4OS(=O)(=O)O)o2)C1 [Compound 753, (2S,5R)-2-(5-(2-((1r,3R)-3-aminocyclobutyl)ethyl)-1,3,4-oxadiazol-2-yl)-7-oxo-1,6-diazabicyclo[3.2.1]octan-6-yl hydrogen sulfate] | more active than Avibactam
